# Legend:
# Type in all cases: biochemical
# [1] = target: IGF-IR (Homo sapiens, UniProt P08069); experiment: Kinase selectivity screening (example 14)
# [2] = target: FGFR2 (Homo sapiens, UniProt P21802); experiment: Kinase selectivity screening (example 14)
# [3] = target: PDGFRa (Homo sapiens, UniProt P16234); experiment: Kinase selectivity screening (example 14)
# [4] = target: FGFR3 (Homo sapiens, UniProt P22607); experiment: Kinase selectivity screening (example 14)
# [5] = target: Syk (Homo sapiens, UniProt P43405); experiment: Kinase selectivity screening (example 14)
# [6] = target: Tie2 (Homo sapiens, UniProt Q02763); experiment: Kinase selectivity screening (example 14)
# Chain of Tie2 (Q02763 23-1124, species assumed): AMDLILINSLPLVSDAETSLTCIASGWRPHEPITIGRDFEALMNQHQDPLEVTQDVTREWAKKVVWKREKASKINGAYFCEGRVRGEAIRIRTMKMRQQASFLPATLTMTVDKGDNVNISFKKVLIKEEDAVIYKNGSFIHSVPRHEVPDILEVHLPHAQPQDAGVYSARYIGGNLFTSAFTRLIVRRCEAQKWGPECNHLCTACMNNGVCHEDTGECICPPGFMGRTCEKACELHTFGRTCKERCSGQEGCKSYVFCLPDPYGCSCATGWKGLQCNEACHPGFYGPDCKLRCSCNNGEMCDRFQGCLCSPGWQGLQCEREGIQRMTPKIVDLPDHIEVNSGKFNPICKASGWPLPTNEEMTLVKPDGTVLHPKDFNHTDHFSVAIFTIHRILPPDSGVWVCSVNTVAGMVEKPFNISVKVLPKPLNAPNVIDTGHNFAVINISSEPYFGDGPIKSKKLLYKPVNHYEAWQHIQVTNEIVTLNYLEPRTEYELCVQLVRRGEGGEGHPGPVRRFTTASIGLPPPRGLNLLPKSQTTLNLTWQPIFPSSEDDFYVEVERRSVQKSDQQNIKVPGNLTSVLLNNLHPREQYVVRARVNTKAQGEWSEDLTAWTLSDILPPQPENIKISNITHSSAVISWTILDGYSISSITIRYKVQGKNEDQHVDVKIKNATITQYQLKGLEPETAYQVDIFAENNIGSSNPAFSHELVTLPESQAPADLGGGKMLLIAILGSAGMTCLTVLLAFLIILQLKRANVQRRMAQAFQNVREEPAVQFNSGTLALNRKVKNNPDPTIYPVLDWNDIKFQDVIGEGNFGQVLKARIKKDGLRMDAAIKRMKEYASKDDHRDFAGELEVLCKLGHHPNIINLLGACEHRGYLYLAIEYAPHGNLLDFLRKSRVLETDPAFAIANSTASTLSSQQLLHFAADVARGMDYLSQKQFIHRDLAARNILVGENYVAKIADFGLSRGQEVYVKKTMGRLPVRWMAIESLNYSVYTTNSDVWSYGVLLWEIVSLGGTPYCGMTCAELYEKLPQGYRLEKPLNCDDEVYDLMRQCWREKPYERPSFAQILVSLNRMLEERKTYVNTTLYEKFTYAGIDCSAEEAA
# [7] = target: T1, Akt1 (Homo sapiens, UniProt P31749); experiment: Akt1 kinase assay (Histone H1 substrate); conditions: 200 μM ATP, read-out: AKT-1 IC50
# T1 construct: purchased Upstate
# T1 sequence (P31749 whole entry, species assumed): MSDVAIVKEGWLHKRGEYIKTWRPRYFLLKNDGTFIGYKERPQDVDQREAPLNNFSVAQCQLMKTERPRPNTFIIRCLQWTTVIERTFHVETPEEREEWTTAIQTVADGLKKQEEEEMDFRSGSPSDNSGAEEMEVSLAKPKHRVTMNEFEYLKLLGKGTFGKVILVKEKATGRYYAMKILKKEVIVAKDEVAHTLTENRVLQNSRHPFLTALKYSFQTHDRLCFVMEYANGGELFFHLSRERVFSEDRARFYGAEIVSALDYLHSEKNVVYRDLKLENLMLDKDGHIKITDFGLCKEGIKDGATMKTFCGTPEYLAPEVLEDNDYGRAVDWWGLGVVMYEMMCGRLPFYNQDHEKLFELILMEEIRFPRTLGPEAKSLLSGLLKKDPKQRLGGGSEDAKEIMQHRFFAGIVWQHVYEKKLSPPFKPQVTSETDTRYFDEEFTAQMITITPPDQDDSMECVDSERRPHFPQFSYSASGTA
# [8] = target: KDR (Homo sapiens, UniProt P35968); experiment: Kinase selectivity screening (example 14)
# Chain of KDR (P35968 20-1356, species assumed): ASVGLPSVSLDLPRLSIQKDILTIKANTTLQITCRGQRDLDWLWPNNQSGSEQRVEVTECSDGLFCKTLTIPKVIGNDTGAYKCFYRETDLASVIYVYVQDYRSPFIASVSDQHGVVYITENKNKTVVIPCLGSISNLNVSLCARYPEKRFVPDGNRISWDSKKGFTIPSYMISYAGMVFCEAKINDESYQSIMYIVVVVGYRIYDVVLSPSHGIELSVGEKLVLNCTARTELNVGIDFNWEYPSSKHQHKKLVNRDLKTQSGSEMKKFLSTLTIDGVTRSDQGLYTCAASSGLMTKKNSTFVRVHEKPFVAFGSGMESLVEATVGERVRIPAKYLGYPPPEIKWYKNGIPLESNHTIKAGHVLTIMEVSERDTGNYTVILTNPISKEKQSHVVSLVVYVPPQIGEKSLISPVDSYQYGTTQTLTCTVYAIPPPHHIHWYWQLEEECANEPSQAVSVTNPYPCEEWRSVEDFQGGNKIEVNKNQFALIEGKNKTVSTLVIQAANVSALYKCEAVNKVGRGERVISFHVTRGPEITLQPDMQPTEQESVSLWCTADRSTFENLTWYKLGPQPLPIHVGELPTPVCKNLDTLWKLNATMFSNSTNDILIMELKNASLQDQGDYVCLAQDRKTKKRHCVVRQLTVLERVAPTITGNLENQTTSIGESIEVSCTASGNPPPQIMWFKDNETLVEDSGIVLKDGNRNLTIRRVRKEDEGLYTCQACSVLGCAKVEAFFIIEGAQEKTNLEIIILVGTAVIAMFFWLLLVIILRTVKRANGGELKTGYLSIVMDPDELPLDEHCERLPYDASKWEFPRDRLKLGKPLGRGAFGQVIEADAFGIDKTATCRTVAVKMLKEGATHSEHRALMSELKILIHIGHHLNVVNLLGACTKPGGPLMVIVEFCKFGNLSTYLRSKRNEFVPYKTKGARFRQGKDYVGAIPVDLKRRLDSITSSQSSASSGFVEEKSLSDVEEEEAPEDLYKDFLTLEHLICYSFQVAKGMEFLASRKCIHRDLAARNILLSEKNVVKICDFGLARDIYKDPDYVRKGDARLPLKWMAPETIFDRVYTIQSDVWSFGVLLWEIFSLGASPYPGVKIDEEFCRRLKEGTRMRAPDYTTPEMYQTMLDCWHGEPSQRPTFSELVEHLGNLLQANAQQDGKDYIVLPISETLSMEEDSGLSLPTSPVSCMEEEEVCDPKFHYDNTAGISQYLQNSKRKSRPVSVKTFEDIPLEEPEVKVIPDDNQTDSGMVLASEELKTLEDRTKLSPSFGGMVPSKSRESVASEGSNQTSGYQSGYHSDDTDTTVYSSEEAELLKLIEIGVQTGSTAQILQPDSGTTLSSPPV
# [9] = target: Flt1 (Homo sapiens, UniProt P17948); experiment: Kinase selectivity screening (example 14)
# [10] = target: FGFR1 (Homo sapiens, UniProt P11362); experiment: Kinase selectivity screening (example 14)
# [11] = target: T2, GST-Chk1 enzyme (Homo sapiens, UniProt O14757); experiment: Chk1 kinase assay (33P Chktide phosphorylation); conditions: 0.01 mM ATP, 40 minutes at 30° C.; read-out: CHK-1 IC50
# T2 sequence (O14757 1-476): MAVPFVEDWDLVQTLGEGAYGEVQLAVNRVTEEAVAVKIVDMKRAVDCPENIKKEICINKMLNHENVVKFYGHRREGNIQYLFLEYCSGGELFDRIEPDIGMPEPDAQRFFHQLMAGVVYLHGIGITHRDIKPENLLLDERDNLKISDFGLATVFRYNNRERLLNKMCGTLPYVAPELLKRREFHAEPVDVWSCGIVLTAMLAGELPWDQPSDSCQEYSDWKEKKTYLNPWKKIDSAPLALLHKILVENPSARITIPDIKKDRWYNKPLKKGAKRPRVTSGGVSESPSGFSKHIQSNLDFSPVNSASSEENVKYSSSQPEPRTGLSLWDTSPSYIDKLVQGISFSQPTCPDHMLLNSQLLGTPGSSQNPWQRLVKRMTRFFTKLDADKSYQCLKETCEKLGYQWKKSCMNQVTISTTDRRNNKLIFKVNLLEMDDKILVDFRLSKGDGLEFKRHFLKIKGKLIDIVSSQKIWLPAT
# [12] = target: CDK-2 enzyme, complexed with cyclin A (Homo sapiens, UniProt P24941); experiment: CDK2 kinase assay (33P peptide phosphorylation); conditions: 0.1 mM ATP, cyclin A complex
# Chain of FGFR2 (P21802 22-821, species assumed): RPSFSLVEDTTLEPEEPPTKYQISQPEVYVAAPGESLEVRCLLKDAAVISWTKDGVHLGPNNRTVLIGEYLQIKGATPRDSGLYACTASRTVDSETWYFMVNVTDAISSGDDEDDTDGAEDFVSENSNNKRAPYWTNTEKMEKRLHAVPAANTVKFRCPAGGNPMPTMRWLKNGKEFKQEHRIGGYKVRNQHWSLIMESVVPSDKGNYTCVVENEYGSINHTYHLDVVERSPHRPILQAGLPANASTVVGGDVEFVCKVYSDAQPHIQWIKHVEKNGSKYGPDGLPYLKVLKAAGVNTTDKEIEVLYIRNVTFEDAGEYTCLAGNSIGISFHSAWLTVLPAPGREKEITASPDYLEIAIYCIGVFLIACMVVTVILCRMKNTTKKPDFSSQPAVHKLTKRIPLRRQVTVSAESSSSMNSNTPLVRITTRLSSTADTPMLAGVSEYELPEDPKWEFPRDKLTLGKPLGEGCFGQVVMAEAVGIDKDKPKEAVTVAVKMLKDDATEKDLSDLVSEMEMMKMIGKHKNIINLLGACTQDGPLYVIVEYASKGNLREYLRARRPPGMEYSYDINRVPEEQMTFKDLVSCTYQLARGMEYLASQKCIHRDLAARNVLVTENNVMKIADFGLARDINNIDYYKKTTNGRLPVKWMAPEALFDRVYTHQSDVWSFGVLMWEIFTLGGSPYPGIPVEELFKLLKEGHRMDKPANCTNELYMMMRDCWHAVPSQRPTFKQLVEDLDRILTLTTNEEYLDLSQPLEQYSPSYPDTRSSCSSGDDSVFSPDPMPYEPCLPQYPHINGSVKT
# Chain of IGF-IR (P08069 31-1367): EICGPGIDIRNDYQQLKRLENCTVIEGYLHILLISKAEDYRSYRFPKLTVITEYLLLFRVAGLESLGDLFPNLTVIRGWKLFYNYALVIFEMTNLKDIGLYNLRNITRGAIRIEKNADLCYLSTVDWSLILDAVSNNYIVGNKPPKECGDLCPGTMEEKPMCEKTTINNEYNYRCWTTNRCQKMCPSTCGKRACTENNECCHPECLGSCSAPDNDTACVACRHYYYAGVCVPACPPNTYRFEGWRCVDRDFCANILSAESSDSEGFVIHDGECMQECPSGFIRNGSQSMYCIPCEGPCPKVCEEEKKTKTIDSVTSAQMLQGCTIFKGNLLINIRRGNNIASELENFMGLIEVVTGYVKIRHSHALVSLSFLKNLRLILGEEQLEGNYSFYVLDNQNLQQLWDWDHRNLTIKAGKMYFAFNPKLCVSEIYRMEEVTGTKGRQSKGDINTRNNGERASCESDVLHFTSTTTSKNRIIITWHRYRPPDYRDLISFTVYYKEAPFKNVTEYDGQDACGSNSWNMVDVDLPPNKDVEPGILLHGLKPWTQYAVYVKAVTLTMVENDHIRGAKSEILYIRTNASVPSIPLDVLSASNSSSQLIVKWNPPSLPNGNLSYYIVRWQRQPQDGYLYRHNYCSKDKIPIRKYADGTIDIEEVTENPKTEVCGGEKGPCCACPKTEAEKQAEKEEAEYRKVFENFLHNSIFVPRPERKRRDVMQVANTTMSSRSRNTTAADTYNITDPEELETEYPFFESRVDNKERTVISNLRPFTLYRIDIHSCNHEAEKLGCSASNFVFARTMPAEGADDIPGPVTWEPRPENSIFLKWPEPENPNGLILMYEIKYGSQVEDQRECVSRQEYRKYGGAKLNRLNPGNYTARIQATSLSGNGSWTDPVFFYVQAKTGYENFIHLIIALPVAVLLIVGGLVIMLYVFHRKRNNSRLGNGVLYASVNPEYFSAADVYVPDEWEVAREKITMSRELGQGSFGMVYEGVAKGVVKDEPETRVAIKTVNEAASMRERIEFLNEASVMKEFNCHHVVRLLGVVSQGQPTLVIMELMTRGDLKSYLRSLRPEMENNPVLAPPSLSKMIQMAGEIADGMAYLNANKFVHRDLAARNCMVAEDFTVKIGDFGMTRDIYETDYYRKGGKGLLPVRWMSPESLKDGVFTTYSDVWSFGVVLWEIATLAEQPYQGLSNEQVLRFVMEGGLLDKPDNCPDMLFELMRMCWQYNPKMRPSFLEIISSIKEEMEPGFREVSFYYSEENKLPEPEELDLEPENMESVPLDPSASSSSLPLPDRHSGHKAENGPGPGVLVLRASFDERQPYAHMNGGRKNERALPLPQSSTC
smiles,measurement,setting,value
Cc1[nH]nc(-c2nc3cc4cn[nH]c4cc3[nH]2)c1C(=O)NC1CCNCC1 [Example 14],selectivity versus IGF-IR,[1],> 20 fold
same,selectivity versus FGFR2,[2],> 20 fold
same,selectivity versus PDGFRa,[3],> 20 fold
same,selectivity versus FGFR3,[4],> 20 fold
same,selectivity versus Syk,[5],> 20 fold
same,selectivity versus Tie2,[6],> 20 fold
same,IC50,[7],26.8 µM
same,selectivity versus KDR,[8],> 20 fold
same,selectivity versus Flt1,[9],> 20 fold
same,selectivity versus FGFR1,[10],> 20 fold
same,IC50,[11],0.006 µM
same,IC50,[12],5.11 µM

# — patent US20090131470A1, “PYRAZOLE-SUBSTITUTED BENZIMIDAZOLE DERIVATIVES FOR USE IN THE TREATMENT OF CANCER AND AUTOIMMUNE DISORDERS” (priority 2005, published 2009)
